Laboratory results published in patent US20030087887A1, “Novel fusidic acid derivatives” (priority 2001, published 2003).
In brackets after ≈: the same amount, converted by molar mass. Read-outs that look alike come from different tables or passages of the source. Each block holds one compound with its values, some of them ahead of it.

Legend:
Assay type in all cases: cell-based
[1] = tested on: S. aureus CJ247; test: MIC, agar diffusion, S. aureus CJ247; conditions: Staphylococcus aureus, read-out: in vitro activities MIC
From the text: (§1) In vitro investigations have shown a relatively high potency of compounds of the invention against all bacteria including gram-positive and gram-negative strains (Staphylococci, Streptococci, Corynebacteriae, Mycobacteriae, Proteus, Propionibacterium, Pseudomonas, Neisseriae, E. coli) and fungal strains (Candida and Aspergillus). […] In addition, the studies of post-antibiotic effects point towards a strong bactericidal effect of the compounds of the invention. […] The potency of new polyaminated fusidic acid analogues is estimated by comparing the inhibition of growth of different microorganisms produced by known concentrations of the analogue to be examined and a reference compound such as fusidic acid. The microbiological assay set up is in agreement with the European Pharmacopoeia 3rd edition (1997). It is an agar diffusion method where the same volume of the tested solution is added to cavities in agar. The inhibition zones are function of the concentration of the fusidic acid analogue used. All assays are run with fusidic acid as reference substance.

[2] = tested on: S. aureus CJ200; test: MIC, agar diffusion, S. aureus CJ200; conditions: Staphylococcus aureus, read-out: in vitro activities MIC
From the text: as §1

[3] = tested on: S. aureus CJ234F; test: MIC, agar diffusion, S. aureus CJ234F; conditions: Staphylococcus aureus; S. aureus CJ234F (MRSA, Fus. resistant); read-out: in vitro activities MIC
From the text: as §1

[4] = tested on: S. aureus N6; test: MIC, agar diffusion, S. aureus N6; conditions: Staphylococcus aureus; S. aureus N6 (Fus. resistant); read-out: in vitro activities MIC
From the text: as §1

[5] = tested on: S. epidermis CK5; test: MIC, agar diffusion, S. epidermis CK5; conditions: Staphylococcus epidermidis, read-out: in vitro activities MIC
From the text: as §1

[6] = tested on: Corynebacterium xerosis FF; test: MIC, agar diffusion, Corynebacterium xerosis FF; conditions: read-out: in vitro activities MIC
From the text: as §1

[7] = tested on: E. coli HA165; test: MIC, agar diffusion, E. coli HA165; conditions: Escherichia coli, read-out: in vitro activities MIC
From the text: as §1

[8] = tested on: Pseudomonas aeruginosa BA17; test: MIC, agar diffusion, Pseudomonas aeruginosa BA17; conditions: read-out: in vitro activities MIC
From the text: as §1

[9] = tested on: Saccaromyces cervisiae ZZ7; test: MIC, agar diffusion, Saccaromyces cervisiae ZZ7; conditions: Saccharomyces cerevisiae, read-out: in vitro activities MIC
From the text: as §1

[10] = tested on: Candida albicans ZA; test: MIC, agar diffusion, Candida albicans ZA; conditions: read-out: in vitro activities MIC
From the text: as §1

[11] = tested on: Asbergillus niger ZM35; test: MIC, agar diffusion, Asbergillus niger ZM35; conditions: Aspergillus niger, read-out: in vitro activities MIC
From the text: as §1

[12] = tested on: S. aureus CJ234R; test: MIC, agar diffusion, S. aureus CJ234R; conditions: Staphylococcus aureus, read-out: in vitro activities MIC
From the text: as §1

[13] = tested on: Propionibacterium acnes FN33; test: MIC, agar diffusion, Propionibacterium acnes FN33; conditions: Cutibacterium acnes, read-out: in vitro activities MIC
From the text: as §1

[14] = tested on: Streptococcus pyogenes EC88; test: MIC, agar diffusion, Streptococcus pyogenes EC88; conditions: read-out: in vitro activities MIC
From the text: as §1

[15] = S. aureus CJ234R (MRSA, Rifampicin resistant)

SMILES: CC(C)CCCC(C(=O)NCCNCCCNCCN)[C@H]1CC[C@@]2(C)C1CCC1[C@@]3(C)CC[C@@H](O)[C@@H](C)C3CC[C@@]12C (stereo partly drawn) [Compound 152, 21-N-[2′-({3′-[(2′-aminoethyl)amino]propyl}amino)ethyl]-11-desoxy-16-desacetoxy-17S,20,24,25-tetrahydrofusid-21-amide]
MIC [1]: 4 µg/mL (≈ 6.79 µM) | MIC [2]: 4 µg/mL (≈ 6.79 µM) | MIC [3]: 4 µg/mL (≈ 6.79 µM) | MIC [4]: 4 µg/mL (≈ 6.79 µM) | MIC [5]: 2 µg/mL (≈ 3.4 µM) | MIC [6]: 1 µg/mL (≈ 1.7 µM) | MIC [7]: 4 µg/mL (≈ 6.79 µM) | MIC [8]: 8 µg/mL (≈ 13.6 µM) | MIC [9]: > 125 µg/mL | MIC [10]: > 125 µg/mL | MIC [11]: > 125 µg/mL

SMILES: CC(C)CCCC(C(=O)NCCCCNCCCN)[C@H]1CC[C@@]2(C)C1CCC1[C@@]3(C)CC[C@@H](O)[C@@H](C)C3CC[C@@]12C (stereo partly drawn) [Compound 154, 21-N-{4′-[(3′-aminopropyl)amino]butyl}-11-desoxy-16-desacetoxy-17S,20,24,25-tetrahydrofusid-21-amide]
MIC [1]: 4 µg/mL (≈ 6.97 µM) | MIC [2]: 4 µg/mL (≈ 6.97 µM) | MIC [3]: 4 µg/mL (≈ 6.97 µM) | MIC [4]: 4 µg/mL (≈ 6.97 µM) | MIC [5]: 1 µg/mL (≈ 1.74 µM) | MIC [6]: 0.5 µg/mL (≈ 0.871 µM) | MIC [7]: 8 µg/mL (≈ 13.9 µM) | MIC [8]: 16 µg/mL (≈ 27.9 µM) | MIC [9]: > 125 µg/mL | MIC [10]: > 125 µg/mL | MIC [11]: > 125 µg/mL

SMILES: CC(=O)O[C@H]1C[C@@]2(C)C(C[C@@H](O)C3[C@@]4(C)CC[C@@H](OC(C)=O)[C@@H](C)C4CC[C@@]32C)[C@@H]1[C@H](CCCC(C)C)C(=O)NCCCNCCCNCCCN (stereo partly drawn) [Compound 172, 21-N-[3′-({3′-[(3′-aminopropyl)amino]propyl}amino)propyl]-3-OAc-17R,20S,24,25-tetrahydrofusid-21-amide]
MIC [1]: 4 µg/mL (≈ 5.46 µM) | MIC [2]: 4 µg/mL (≈ 5.46 µM) | MIC ([12]; MRSA): 1 µg/mL (≈ 1.36 µM) | MIC [3]: 4 µg/mL (≈ 5.46 µM) | MIC [4]: 4 µg/mL (≈ 5.46 µM) | MIC [5]: 4 µg/mL (≈ 5.46 µM) | MIC [13]: 1 µg/mL (≈ 1.36 µM) | MIC [6]: 4 µg/mL (≈ 5.46 µM) | MIC [14]: 4 µg/mL (≈ 5.46 µM) | MIC [7]: 4 µg/mL (≈ 5.46 µM) | MIC [8]: 4 µg/mL (≈ 5.46 µM) | MIC [9]: 64 µg/mL (≈ 87.3 µM) | MIC [10]: 64 µg/mL (≈ 87.3 µM) | MIC [11]: 64 µg/mL (≈ 87.3 µM)

SMILES: CC(=O)O[C@H]1C[C@@]2(C)C(CCC3[C@@]4(C)CC[C@@H](OS(=O)(=O)O)[C@@H](C)C4CC[C@@]32C)[C@@H]1[C@H](CCCC(C)C)C(=O)NCCCNCCCCNCCCN (stereo partly drawn) [Compound 177, 21-N-[3′-({4′-[(3′-aminopropyl)amino]butyl}amino)propyl]-3-OSO3-11-desoxy-17,20,24,25-tetrahydrofusid-21-amide]
MIC [1]: 1 µg/mL (≈ 1.3 µM) | MIC [2]: 1 µg/mL (≈ 1.3 µM) | MIC [3]: 1 µg/mL (≈ 1.3 µM) | MIC [4]: 4 µg/mL (≈ 5.2 µM) | MIC [5]: 1 µg/mL (≈ 1.3 µM) | MIC [13]: 1 µg/mL (≈ 1.3 µM) | MIC [6]: 1 µg/mL (≈ 1.3 µM) | MIC [14]: 4 µg/mL (≈ 5.2 µM) | MIC [7]: 16 µg/mL (≈ 20.8 µM) | MIC [8]: 16 µg/mL (≈ 20.8 µM) | MIC [9]: 125 µg/mL (≈ 163 µM) | MIC [10]: 64 µg/mL (≈ 83.2 µM) | MIC [11]: 16 µg/mL (≈ 20.8 µM)

SMILES: CC(=O)O[C@H]1C[C@@]2(C)C(CCC3[C@@]4(C)CC[C@@H](OS(=O)(=O)O)[C@@H](C)C4CC[C@@]32C)[C@@H]1[C@H](CCCC(C)C)C(=O)NCCCNCCCNCCCN (stereo partly drawn) [Compound 180]
MIC [1]: 1 µg/mL (≈ 1.32 µM) | MIC [2]: 1 µg/mL (≈ 1.32 µM) | MIC [3]: 1 µg/mL (≈ 1.32 µM) | MIC [4]: 1 µg/mL (≈ 1.32 µM) | MIC [5]: 4 µg/mL (≈ 5.3 µM) | MIC [13]: 1 µg/mL (≈ 1.32 µM) | MIC [6]: 1 µg/mL (≈ 1.32 µM) | MIC [14]: 16 µg/mL (≈ 21.2 µM) | MIC [7]: 16 µg/mL (≈ 21.2 µM) | MIC [8]: 64 µg/mL (≈ 84.8 µM) | MIC [9]: 125 µg/mL (≈ 166 µM) | MIC [10]: 64 µg/mL (≈ 84.8 µM) | MIC [11]: 4 µg/mL (≈ 5.3 µM)

MIC [1]: 1 µg/mL (≈ 2.96 µM) | MIC [2]: 4 µg/mL (≈ 11.9 µM) | MIC [12, 15]: 16 µg/mL (≈ 47.4 µM) | MIC [3]: 1 µg/mL (≈ 2.96 µM) | MIC [5]: 0.25 µg/mL (≈ 0.741 µM) | MIC [13]: 1 µg/mL (≈ 2.96 µM) | MIC [14]: 4 µg/mL (≈ 11.9 µM)
SMILES: CC(=O)NC[C@H]1CN(c2ccc(N3CCOCC3)c(F)c2)C(=O)O1 [Linezolid, reference compound]

MIC [1]: 0.5 µg/mL (≈ 0.999 µM) | MIC [2]: 1 µg/mL (≈ 2 µM) | MIC [12, 15]: 1 µg/mL (≈ 2 µM) | MIC [3]: 0.5 µg/mL (≈ 0.999 µM) | MIC [5]: 0.04 µg/mL (≈ 0.0799 µM) | MIC [14]: 1 µg/mL (≈ 2 µM)
SMILES: C/C(=C\C(=O)OCCCCCCCCC(=O)O)C[C@@H]1OC[C@H](C[C@@H]2O[C@H]2[C@@H](C)[C@H](C)O)[C@@H](O)[C@H]1O [Mupirocin, reference compound]
